In PubChem BioAssay (NCI):
“And” between values parts separate entries of the source, which are not always exact repeats. Equal entries are not always repeated.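 Results reflect a 48-hour exposure of cells in 96-well plates to compound at five concentrations. GI50 = concentration required for 50% inhibition of growth. Definition used: TGI = concentration required for complete inhibition of growth.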

Tests used:
Assay in all cases: growth of human tumour cells (NCI), 48 h
A549 NSCLC = test system: A549 NSCLC
CAKI-1 renal = test system: CAKI-1 renal
CCRF-CEM leukemia = test system: CCRF-CEM leukemia
MALME-3M melanoma = test system: MALME-3M melanoma
NCI-H23 lung = test system: NCI-H23 lung
OVCAR-3 ovarian = test system: OVCAR-3 ovarian
SF-539 CNS = test system: SF-539 CNS
SR leukemia = test system: SR leukemia
UACC-257 melanoma = test system: UACC-257 melanoma
NCI/ADR-RES ovarian = test system: NCI/ADR-RES ovarian

Compound | TGI (A549 NSCLC) | TGI (CAKI-1 renal) | TGI (CCRF-CEM leukemia) | TGI (MALME-3M melanoma) | TGI (NCI-H23 lung) | TGI (OVCAR-3 ovarian) | TGI (SF-539 CNS) | TGI (SR leukemia) [µM] | TGI (UACC-257 melanoma) | TGI (NCI/ADR-RES ovarian) | GI50 (A549 NSCLC) | GI50 (CAKI-1 renal) | GI50 (CCRF-CEM leukemia) | GI50 (MALME-3M melanoma) | GI50 (NCI-H23 lung) | GI50 (NCI/ADR-RES ovarian) | GI50 (OVCAR-3 ovarian) | GI50 (SR leukemia) [µM] | GI50 (UACC-257 melanoma) | GI50 (SF-539 CNS) [µM]
CC[As](CC)SCC1OC(OC(C)=O)C(OC(C)=O)C(OC(C)=O)C1OC(C)=O (stereo not drawn) | 39.6 µM | 10.4 µM | 18.4 µM | 10.3 µM | 36.4 µM | 27.6 µM | 27.4 µM | 75.4 | 28.6 µM | – | – | – | – | – | – | – | – | – | – | –
CC1=CC[C@@H](C(C)(C)O)C[C@@H]1O | > 5000 µM | – | > 5000 µM | > 5000 µM | > 5000 µM | > 5000 µM | > 5000 µM | > 5000 | > 5000 µM | – | – | – | – | – | – | – | – | – | – | –
CC(C)C1=CC2=C(C(=O)C1=O)C13CCCC(C)(C)C1CC2OC3=O (stereo not drawn) | > 100 µM | 44.1 µM | 33.1 µM | – | 61.7 µM | 38.8 µM | 46.3 µM | – | 71 µM | 40.1 µM | – | – | – | – | – | – | – | – | – | –
CN(C)c1ccc(/C=c2/c3cc(O)ccc3n3c2cc(-c2ccccc2)[n+]3C)cc1 | > 100 µM | > 100 µM | 4.1 µM | – | 4.64 µM | – | – | 4.41 | 3.07 µM | > 100 µM | – | – | – | – | – | – | – | – | – | –
NC(=O)c1csc(-c2ccc(CO)o2)n1 | > 100 µM | > 100 µM | – | > 100 µM | > 100 µM | > 100 µM | > 100 µM | > 100 | > 100 µM | > 100 µM | – | – | – | – | – | – | – | – | – | –
COc1ccc(/C=C/C(=O)/C=C(O)/C=C/c2ccc(OC)c(OC)c2)cc1OC | > 100 µM | 23 µM | > 100 µM | > 100 µM | 21.8 µM | > 100 µM | – | > 100 | 64.8 µM | > 100 µM | 37.9 µM | 3.55 µM | 3.66 µM | 3.82 µM | 3.94 µM | 3.86 µM | 2.8 µM | 1.68 | 33.9 µM | –
Cc1cc(C)nc(NS(=O)(=O)c2ccc(NC(=O)COC(=O)c3cccc4c(=O)c5ccccc5[nH]c34)cc2)n1 | > 100 µM | > 100 µM | 87.7 µM | 73 µM | > 100 µM | 51.4 µM | 34 µM | 76.4 | 65.1 µM | – | – | – | – | – | – | – | – | – | – | –
COc1ccc([C@@H]2OC(=O)C3C2C(=O)O[C@H]3c2ccc(OC)cc2)cc1 (stereo partly drawn) | > 100 µM | > 100 µM | > 100 µM | – | > 100 µM | > 100 µM | > 100 µM | > 100 | > 100 µM | – | – | – | – | – | – | – | – | – | – | –
COc1cc(CC(=O)O)c([N+](=O)[O-])cc1OC | > 100 µM | > 100 µM | > 100 µM | > 100 µM | > 100 µM | > 100 µM | > 100 µM | – | > 100 µM | – | – | – | – | – | – | – | – | – | – | –
Cc1c(Cl)c(C)c(Cl)c(O)c1Cl | 71.9 µM | 62.7 µM | > 100 µM | 54.3 µM | 94 µM | 66.5 µM | > 100 µM | – | 87 µM | 72.6 µM | – | – | – | – | – | – | – | – | – | –
CN1CCN(CCC=C2c3ccccc3Sc3ccc(S(=O)(=O)N(C)C)cc32)CC1 | > 100 µM and 31.5 µM | 20.6 µM and 23.9 µM | 20.1 µM and 23 µM | 3.5 µM and 9.72 µM | 71 µM and 52.7 µM | 16.3 µM and 22.7 µM | – | 7.74 | 3.73 µM and 4.03 µM | 26.5 µM and 37.5 µM | 5.69 µM and 9.71 µM | 3.45 µM and 5.41 µM | 3.12 µM and 4.36 µM | 1.73 µM and 2.54 µM | 12.2 µM and 15.7 µM | 5.5 µM and 13.2 µM | 3.84 µM and 6.44 µM | 2.19 | 2.02 µM and 1.8 µM | –
COC(=O)C1=CC(=O)[C@@H]2CCCC[C@H]12 | > 100 µM | > 100 µM | > 100 µM | > 100 µM | – | > 100 µM | > 100 µM | > 100 | > 100 µM | – | – | – | – | – | – | – | – | – | – | –
[CH3][Hg]/[N]=C(/N)NC#N | 38.4 µM | 25.7 µM | > 100 µM | 4.94 µM | 24.5 µM | 8.6 µM | 32.4 µM | 39.9 | 17.4 µM | – | 17.3 µM | 12.9 µM | 3.65 µM | 2.34 µM | 10.2 µM | – | 2.74 µM | 4.39 | 5.1 µM | 17.7
Cc1cc(C)c(/C=N/NS(=O)(=O)c2ccccc2)c(C)c1 | > 100 µM | > 100 µM | > 100 µM | > 100 µM | > 100 µM | > 100 µM | > 100 µM | > 100 | > 100 µM | – | – | – | – | – | – | – | – | – | – | –
CC(=O)N[C@@H](Cc1ccc(OP(=O)(O)O)cc1)C(=O)N[C@H]1CCC(=O)N2CCC[C@@H](C(=O)NC3CCc4ccccc43)N2C1=O (stereo partly drawn) | > 25 µM | > 25 µM | > 25 µM | > 25 µM | > 25 µM | > 25 µM | > 25 µM | – | > 25 µM | > 25 µM | > 25 µM | > 25 µM | > 25 µM | > 25 µM | > 25 µM | > 25 µM | > 25 µM | – | > 25 µM | > 25
COC1C(=O)CCC2(CO2)C1(O)C1(C)OC1CC=C(C)C (stereo not drawn) | > 100 µM | > 100 µM | – | – | > 100 µM | > 100 µM | – | > 100 | > 100 µM | – | – | – | – | – | – | – | – | – | – | –
COc1cc2c(cc1-c1coc3cc(O)ccc3c1=O)OCO2 | 77.4 µM | 51.1 µM | > 100 µM | – | 40.3 µM | > 100 µM | 48.6 µM | – | 85.1 µM | 48.4 µM | – | – | – | – | – | – | – | – | – | –
CCCCCCCCCC[C@H](O)[C@H]1CC[C@@H]([C@@H](O)CC[C@H](O)[C@@H]2CCC(CCCCCCC[C@@H](O)CC3=C[C@H](C)OC3=O)O2)O1 (stereo partly drawn) | 18.5 µM | 23.8 µM | 12.3 µM | 12.3 µM | 3.68 µM and 19.2 µM | 2.75 µM and 14.2 µM | 3.86 µM and 25.8 µM | – | 4.47 µM and 13.8 µM | 4.08 µM and 19.6 µM | 2.89 µM | 5.26 µM | 2.08 µM | – | – | 2.63 µM | 3.29 µM | – | 0.921 µM | 4.33
Fc1ccc(N=C2C=CC(=Nc3ccc(F)cc3)c3ccccc32)cc1 | > 100 µM | – | > 100 µM | > 100 µM | > 100 µM | > 100 µM | > 100 µM | > 100 | > 100 µM | – | – | – | – | – | – | – | – | – | – | –
CC#CC#C/C(=C/C=CC(=O)OC)SC | > 100 µM | > 100 µM | – | > 100 µM | – | – | > 100 µM | – | > 100 µM | > 100 µM | – | – | – | – | – | – | – | – | – | –
